From patent publication US7157452B2, “Substituted 4,9-dihydrocyclopenta{imn}phenanthridine-5-ones derivatives thereof and their uses” (MGI GP, Inc., priority 2001, dated 2007)
Read-outs that look alike come from different tables or passages of the source.

Target: T1, purified recombinant human PARP (Homo sapiens, UniProt P09874)
T1 construct: purchased Trevigan (Gaithersburg, Md.)
Assay: PARP enzyme assay with [3H]NAD, scintillation counting
Assay type: biochemical
Protocol: The reaction is initiated by incubating the mixture at 25° C. After 15 minutes of incubation, the reaction is terminated by adding 500 microliters of ice cold 20% (w/v) trichloroacetic acid. The precipitate formed is transferred onto a glass fiber filter (Packard Unifilter-GF/B) and washed three times with ethanol. After the filter is dried, the radioactivity is determined by scintillation counting.
Using the PARP assay described above, approximate IC50 (μM) values were obtained as shown in the following Table III, which also include specific embodiments of the compounds of the present invention: […]

[1] = Table III, read-out: approximate IC50

T1 sequence (P09874 whole entry): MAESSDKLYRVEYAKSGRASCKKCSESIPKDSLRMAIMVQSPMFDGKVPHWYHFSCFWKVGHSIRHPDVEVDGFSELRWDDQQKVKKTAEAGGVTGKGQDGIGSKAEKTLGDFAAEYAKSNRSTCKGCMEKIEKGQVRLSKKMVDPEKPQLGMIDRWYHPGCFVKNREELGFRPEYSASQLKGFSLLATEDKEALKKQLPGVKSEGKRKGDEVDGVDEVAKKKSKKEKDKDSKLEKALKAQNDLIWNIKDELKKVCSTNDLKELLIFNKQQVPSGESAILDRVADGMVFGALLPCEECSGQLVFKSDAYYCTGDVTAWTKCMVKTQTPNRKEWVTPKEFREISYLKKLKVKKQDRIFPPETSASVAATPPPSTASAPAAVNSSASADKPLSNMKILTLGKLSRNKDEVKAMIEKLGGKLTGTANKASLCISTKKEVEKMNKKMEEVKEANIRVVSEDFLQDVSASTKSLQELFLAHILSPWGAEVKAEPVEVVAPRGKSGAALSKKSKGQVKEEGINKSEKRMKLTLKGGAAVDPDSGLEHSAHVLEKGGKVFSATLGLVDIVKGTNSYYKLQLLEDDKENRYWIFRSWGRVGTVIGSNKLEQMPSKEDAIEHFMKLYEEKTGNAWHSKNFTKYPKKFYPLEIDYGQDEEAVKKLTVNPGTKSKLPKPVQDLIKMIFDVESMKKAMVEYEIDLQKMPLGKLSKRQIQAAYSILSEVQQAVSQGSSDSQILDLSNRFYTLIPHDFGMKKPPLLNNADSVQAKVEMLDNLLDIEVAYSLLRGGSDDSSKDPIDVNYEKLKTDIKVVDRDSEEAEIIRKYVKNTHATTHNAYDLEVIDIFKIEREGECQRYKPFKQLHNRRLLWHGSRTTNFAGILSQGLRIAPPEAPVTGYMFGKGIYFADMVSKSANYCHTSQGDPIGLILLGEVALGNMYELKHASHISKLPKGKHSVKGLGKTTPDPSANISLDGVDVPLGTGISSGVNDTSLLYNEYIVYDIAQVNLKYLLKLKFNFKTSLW

| IC50 [1] [nM] | IC50 (examples table, read-out: IC50) [nM] | Structure (SMILES) |
| --- | --- | --- |
| 247 | 247 | O=c1[nH]c2ccc(S(=O)(=O)N3CCN(CC4CCCO4)CC3)c3c2c2c(cccc12)C3 (stereo not shown) [Example 3] |
| 457 | 457 | O=C(CNCCN1CCOCC1)Nc1ccc2[nH]c(=O)c3cccc4c3c2c1C4 [Example 47] |
| 55 | 55 | CN(C)CCN(C)CC(=O)Nc1ccc2[nH]c(=O)c3cccc4c3c2c1C4 [Example 57] |
| 219 | 219 | O=C(CN1CCN(c2ccc(C(F)(F)F)cc2)CC1)Nc1ccc2[nH]c(=O)c3cccc4c3c2c1C4 [Example 39] |
| 109 | 109 | CN(C)CCCN1CCN(S(=O)(=O)c2ccc3[nH]c(=O)c4cccc5c4c3c2C5)CC1 [Example 29] |
| 63 | 63 | O=c1[nH]c2ccc(S(=O)(=O)NCCCN3CCOCC3)c3c2c2c(cccc12)C3 [Example 6] |
| 264 | 264 | O=c1[nH]c2ccc(S(=O)(=O)N3CCN(CCN4CCCC4)CC3)c3c2c2c(cccc12)C3 [Example 30] |
| 133 | 133 | CCN(CC)CCNCC(=O)Nc1ccc2[nH]c(=O)c3cccc4c3c2c1C4 [Example 45] |
| 558 | 558 | O=C(CN1CCN(CCN2CCOCC2)CC1)Nc1ccc2[nH]c(=O)c3cccc4c3c2c1C4 [Example 55] |
| 118 | 118 | CCN(CC)CCCNCC(=O)Nc1ccc2[nH]c(=O)c3cccc4c3c2c1C4 [Example 46] |
| 89 | 89 | O=c1[nH]c2ccc(S(=O)(=O)NCCN3CCCC3)c3c2c2c(cccc12)C3 [Example 5] |
| 193 | 193 | O=C(CN1CCN(CC2CCCO2)CC1)Nc1ccc2[nH]c(=O)c3cccc4c3c2c1C4 (stereo not shown) [Example 35] |
| 178 | 178 | CN1CCCC(CN2CCN(CC(=O)Nc3ccc4[nH]c(=O)c5cccc6c5c4c3C6)CC2)C1 (stereo not shown) [Example 51] |
| 115 | 115 | CN(C)CCN1CCN(CC(=O)Nc2ccc3[nH]c(=O)c4cccc5c4c3c2C5)CC1 [Example 50] |
| 267 | 267 | O=C(CN1CCN(Cc2ccncc2)CC1)Nc1ccc2[nH]c(=O)c3cccc4c3c2c1C4 [Example 54] |
| 634 | 634 | O=c1[nH]c2ccc(S(=O)(=O)N3CCN(CCN4CCOCC4)CC3)c3c2c2c(cccc12)C3 [Example 27] |
| 92 | 92 | O=c1[nH]c2ccc(S(=O)(=O)NN3CCOCC3)c3c2c2c(cccc12)C3 [Example 16] |
| 166 | 166 | CN1CCC(N2CCN(S(=O)(=O)c3ccc4[nH]c(=O)c5cccc6c5c4c3C6)CC2)CC1 [Example 23] |
| 119 | 119 | CN1CCC(N2CCN(CC(=O)Nc3ccc4[nH]c(=O)c5cccc6c5c4c3C6)CC2)CC1 [Example 53] |

| IC50 [1] [nM] | IC50 (examples table, read-out: IC50) [nM] | Structure (SMILES) |
| --- | --- | --- |
| 64 | 64 | CN1CCN(CCCNS(=O)(=O)c2ccc3[nH]c(=O)c4cccc5c4c3c2C5)CC1 [Example 12] |
| 129 | 129 | CN1CCN(NS(=O)(=O)c2ccc3[nH]c(=O)c4cccc5c4c3c2C5)CC1 [Example 10] |
| 58 | 58 | O=C(CN1CCOCC1)Nc1ccc2[nH]c(=O)c3cccc4c3c2c1C4 [Example 34] |
| 175 | 175 | O=C(CNCCN1CCCCC1)Nc1ccc2[nH]c(=O)c3cccc4c3c2c1C4 [Example 38] |
| 36 | 36 | CC(=O)N1CCN(CC(=O)Nc2ccc3[nH]c(=O)c4cccc5c4c3c2C5)CC1 [Example 32, 2-(4-Acetyl-piperazin-1-yl)-N-(5-oxo-5,9-dihydro-4H-cyclopenta[lmn]phenanthridin-1-yl)-acetamide] |
| 178 | 178 | O=C(CNCCCN1CCOCC1)Nc1ccc2[nH]c(=O)c3cccc4c3c2c1C4 [Example 37] |
| 335 | 335 | O=c1[nH]c2ccc(S(=O)(=O)N3CCN(c4ccc(F)cc4)CC3)c3c2c2c(cccc12)C3 [Example 8] |
| 218 | 218 | O=C(CN1CCN(Cc2ccccc2)CC1)Nc1ccc2[nH]c(=O)c3cccc4c3c2c1C4 [Example 33] |
| 52 | 52 | CN1CCN(CCCNS(=O)(=O)c2ccc3[nH]c(=O)c4cccc5c4c3c2C5)CC1 [Example 19] |
| 45 | 45 | CN1CCN(CC(=O)Nc2ccc3[nH]c(=O)c4cccc5c4c3c2C5)CC1 [Example 31, 2-(4-Methyl-piperazin-1-yl)-N-(5-oxo-5,9-dihydro-4H-cyclopenta[lmn]phenanthridin-1-yl)-acetamide] |
| 314 | 314 | O=c1[nH]c2ccc(S(=O)(=O)N3CCN(CCN4CCCCC4)CC3)c3c2c2c(cccc12)C3 [Example 26] |
| 49 | 49 | O=C(CNCCN1CCCC1)Nc1ccc2[nH]c(=O)c3cccc4c3c2c1C4 [Example 11] |
| 144 | 144 | CN(C)CCCN(C)CC(=O)Nc1ccc2[nH]c(=O)c3cccc4c3c2c1C4 [Example 48] |
| 77 | 77 | CCN(CC)CCNS(=O)(=O)c1ccc2[nH]c(=O)c3cccc4c3c2c1C4 [Example 20] |
| 230 | 230 | O=C(CN1CCN(c2ccc(F)cc2)CC1)Nc1ccc2[nH]c(=O)c3cccc4c3c2c1C4 [Example 40] |
| 114 | 114 | O=c1[nH]c2ccc(S(=O)(=O)NCCc3ccccn3)c3c2c2c(cccc12)C3 [Example 15] |
| 96 | 96 | CN1CCC(CN2CCN(CC(=O)Nc3ccc4[nH]c(=O)c5cccc6c5c4c3C6)CC2)CC1 [Example 52] |
| 1130 | 1130 | O=c1[nH]c2ccc(S(=O)(=O)NCCCc3ccccc3)c3c2c2c(cccc12)C3 [Example 4] |
| 390 | 390 | O=C(CN1CCN(CCN2CCCC2)CC1)Nc1ccc2[nH]c(=O)c3cccc4c3c2c1C4 [Example 58] |

| IC50 [1] [nM] | IC50 (examples table, read-out: IC50) [nM] | Structure (SMILES) |
| --- | --- | --- |
| 115 | 115 | O=c1[nH]c2ccc(S(=O)(=O)N3CCN(CCN4CCCC4)CC3)c3c2c2c(cccc12)C3 [Example 22] |
| 929 | 929 | O=c1[nH]c2ccc(S(=O)(=O)N3CCN(c4ccncc4)CC3)c3c2c2c(cccc12)C3 [Example 24] |
| 110 | 110 | CN(C)CCCN(C)S(=O)(=O)c1ccc2[nH]c(=O)c3cccc4c3c2c1C4 [Example 18] |
| 137 | 137 | CCOC(=O)C1CCCN(S(=O)(=O)c2ccc3[nH]c(=O)c4cccc5c4c3c2C5)C1 (stereo not shown) [Example 2, 1-(5-Oxo-5,9-dihydro-4H-cyclopenta[lmn]phenanthridine-1-sulfonyl)-piperidine-3-carboxylic acid ethyl ester] |
| 406 | 406 | O=c1[nH]c2ccc(S(=O)(=O)N3CCN(Cc4ccncc4)CC3)c3c2c2c(cccc12)C3 [Example 28] |
| 48 | 48 | CCN(CC)CCNS(=O)(=O)c1ccc2[nH]c(=O)c3cccc4c3c2c1C4 [Example 13] |
| 94 | 94 | O=C(CN1CCC(N2CCCC2)CC1)Nc1ccc2[nH]c(=O)c3cccc4c3c2c1C4 [Example 44] |
| 154 | 154 | CN(C)CCN(C)S(=O)(=O)c1ccc2[nH]c(=O)c3cccc4c3c2c1C4 [Example 17] |
| 91 | 91 | CCN(CC)CCCNS(=O)(=O)c1ccc2[nH]c(=O)c3cccc4c3c2c1C4 [Example 14] |
| 211 | 211 | O=c1[nH]c2ccc(S(=O)(=O)N3CCN(c4ccc(F)cc4F)CC3)c3c2c2c(cccc12)C3 [Example 9] |
| 165 | 165 | CN1CCC(CN2CCN(S(=O)(=O)c3ccc4[nH]c(=O)c5cccc6c5c4c3C6)CC2)CC1 [Example 25] |
| 72 | 72 | CN(C)CCCN1CCN(CC(=O)Nc2ccc3[nH]c(=O)c4cccc5c4c3c2C5)CC1 [Example 49] |
| 269 | 269 | O=c1[nH]c2ccc(S(=O)(=O)N3CCN(c4ccc(C(F)(F)F)cc4)CC3)c3c2c2c(cccc12)C3 [Example 7] |
| 336 | 336 | O=C(CN1CCN(c2ccc(F)cc2F)CC1)Nc1ccc2[nH]c(=O)c3cccc4c3c2c1C4 [Example 41] |
| 158 | 158 | O=C(CN1CCN(c2ccccn2)CC1)Nc1ccc2[nH]c(=O)c3cccc4c3c2c1C4 [Example 42] |
| 204 | 204 | O=C(CN1CCN(c2ccncc2)CC1)Nc1ccc2[nH]c(=O)c3cccc4c3c2c1C4 [Example 56] |
| 188 | 188 | O=C(CNCCCc1ccccc1)Nc1ccc2[nH]c(=O)c3cccc4c3c2c1C4 [Example 36] |
| 64 | 64 | CN(C)CCCN1CCN(S(=O)(=O)c2ccc3[nH]c(=O)c4cccc5c4c3c2C5)CC1 [Example 21] |
